Measurements published in the supplement of paper PMC10307832.

Key:
Experiment in all cases: relative viability (nuclei count vs DMSO), 5 days (fraction); higher = more cells survive
VE-821 + Bortezomib = compound: CS(=O)(=O)c1ccc(-c2cnc(N)c(C(=O)Nc3ccccc3)n2)cc1 [VE-821] + CC(C)C[C@H](NC(=O)[C@H](Cc1ccccc1)NC(=O)c1cnccn1)B(O)O [Bortezomib] (partner 0.002 µM)
Procedure, shortened: (§1)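 Lung cancer cell lines in 1536-well plates got either a single drug or a fixed anchor-drug dose together with five library-drug doses (not always all listed) in √10 steps, by pin tool, on the day after seeding. Nuclei were counted after 5 days, and relative viability is the treated-to-vehicle ratio of nuclei counts. Values are medians of duplicate plates.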

VE-821 + Olaparib = compound: CS(=O)(=O)c1ccc(-c2cnc(N)c(C(=O)Nc3ccccc3)n2)cc1 [VE-821] + O=C(c1cc(Cc2n[nH]c(=O)c3ccccc23)ccc1F)N1CCN(C(=O)C2CC2)CC1 [Olaparib] (partner 8 µM)
Procedure, shortened: as §1

Ruxolitinib + Navitoclax = compound: N#CC[C@H](C1CCCC1)n1cc(-c2ncnc3[nH]ccc23)cn1 [Ruxolitinib] + CC1(C)CCC(c2ccc(Cl)cc2)=C(CN2CCN(c3ccc(C(=O)NS(=O)(=O)c4ccc(N[C@H](CCN5CCOCC5)CSc5ccccc5)c(S(=O)(=O)C(F)(F)F)c4)cc3)CC2)C1 [Navitoclax] (partner 0.5 µM)
Procedure, shortened: as §1

Ruxolitinib + Crizotinib = compound: N#CC[C@H](C1CCCC1)n1cc(-c2ncnc3[nH]ccc23)cn1 [Ruxolitinib] + C[C@@H](Oc1cc(-c2cnn(C3CCNCC3)c2)cnc1N)c1c(Cl)ccc(F)c1Cl [Crizotinib] (partner 1 µM)
Procedure, shortened: as §1

Which results are given for UMC-11?
relative viability (VE-821 + Bortezomib; first compound 0.08 µM): 0.873; relative viability (VE-821 + Bortezomib; first compound 0.253 µM): 0.707; relative viability (VE-821 + Bortezomib; first compound 0.8 µM): 0.794; relative viability (VE-821 + Bortezomib; first compound 2.53 µM): 0.789; relative viability (VE-821 + Bortezomib; first compound 8 µM): 0.641; relative viability (VE-821 + Olaparib; first compound 0.08 µM): 0.82; relative viability (VE-821 + Olaparib; first compound 0.253 µM): 0.429; relative viability (VE-821 + Olaparib; first compound 0.8 µM): 0.374; relative viability (VE-821 + Olaparib; first compound 2.53 µM): 0.274; relative viability (VE-821 + Olaparib; first compound 8 µM): 0.208; relative viability (Ruxolitinib + Navitoclax; first compound 0.08 µM): 0.3; relative viability (Ruxolitinib + Navitoclax; first compound 0.253 µM): 0.302; relative viability (Ruxolitinib + Navitoclax; first compound 0.8 µM): 0.388; relative viability (Ruxolitinib + Navitoclax; first compound 2.53 µM): 0.352; relative viability (Ruxolitinib + Navitoclax; first compound 8 µM): 0.288; relative viability (Ruxolitinib + Crizotinib; first compound 0.08 µM): 0.622; relative viability (Ruxolitinib + Crizotinib; first compound 0.253 µM): 0.616; relative viability (Ruxolitinib + Crizotinib; first compound 0.8 µM): 0.736; relative viability (Ruxolitinib + Crizotinib; first compound 2.53 µM): 0.736; relative viability (Ruxolitinib + Crizotinib; first compound 8 µM): 0.668
